Starred links: 1 amine or outer side, 2 acyl side, 3 side chain; linkers in the order of their positions; H or OH if unused. Non-standard residues stand in square brackets, D forms with d. Groups on a side chain read outwards from the residue. No end group written: not given here. *: point of attachment. C18 diacid = O=C(O)CCCCCCCCCCCCCCCCC(=O)*; γGlu = O=C(O)[C@H](CCC(=O)[*:2])N[*:1]; αMe4Pal = C[C@](N)(Cc1ccncc1)C(=O)O; 4Pal = N[C@@H](Cc1ccncc1)C(=O)O; αMeL = CC(C)C[C@](C)(N)C(=O)O; Orn = NCCC[C@H](N)C(=O)O; Dap = NC[C@H](N)C(=O)O; AEEA = NCCOCCOCC(=O)O; Aib = CC(C)(N)C(=O)O
Experiments:
Format in all cases: cell-based
[1] = target: human GcgR (Homo sapiens, UniProt P47871); assay: Functional cAMP activity in the presence of 1% HSA; details: read-out: cAMP Rel EC50, hGcgR
Chain of human GcgR (P47871 26-477): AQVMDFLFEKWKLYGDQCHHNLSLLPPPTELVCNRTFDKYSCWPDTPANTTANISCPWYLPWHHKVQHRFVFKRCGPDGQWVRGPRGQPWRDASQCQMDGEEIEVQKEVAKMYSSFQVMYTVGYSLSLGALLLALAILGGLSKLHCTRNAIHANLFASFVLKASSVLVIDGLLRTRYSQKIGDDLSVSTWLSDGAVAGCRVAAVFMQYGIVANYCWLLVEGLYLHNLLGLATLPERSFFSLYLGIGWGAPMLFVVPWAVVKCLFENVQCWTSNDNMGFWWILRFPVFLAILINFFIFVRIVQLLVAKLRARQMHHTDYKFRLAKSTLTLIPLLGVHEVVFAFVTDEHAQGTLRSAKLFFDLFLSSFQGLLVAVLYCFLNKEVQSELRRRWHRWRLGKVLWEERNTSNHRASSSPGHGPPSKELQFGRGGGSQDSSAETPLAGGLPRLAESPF

[2] = target: T1, hGLP-1R (Homo sapiens, UniProt P43220); assay: Functional cAMP activation in the presence of 0.1% casein (no HSA); details: in the presence of 0.1% casein (no HSA); geometric mean; read-out: Relative cAMP EC50, hGLP-1R;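 note: intracellular cAMP rise after 30 min at 37 °C read by HTRF, normalized between buffer only (0%) and maximal control ligand (100%), four-parameter variable-slope fit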
T1 sequence (P43220 24-463): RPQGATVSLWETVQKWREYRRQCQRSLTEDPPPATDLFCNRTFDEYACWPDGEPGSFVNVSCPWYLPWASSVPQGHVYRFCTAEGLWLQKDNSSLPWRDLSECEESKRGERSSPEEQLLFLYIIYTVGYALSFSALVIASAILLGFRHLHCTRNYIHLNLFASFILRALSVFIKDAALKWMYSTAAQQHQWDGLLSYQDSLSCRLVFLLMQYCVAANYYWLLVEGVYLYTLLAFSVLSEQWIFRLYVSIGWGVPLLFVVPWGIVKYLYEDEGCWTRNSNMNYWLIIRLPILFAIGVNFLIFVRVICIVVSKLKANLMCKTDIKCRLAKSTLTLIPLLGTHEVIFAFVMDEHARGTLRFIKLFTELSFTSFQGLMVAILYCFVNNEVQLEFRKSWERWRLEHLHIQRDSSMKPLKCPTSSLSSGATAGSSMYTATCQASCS

[3] = target: hGcgR (Homo sapiens, UniProt P47871); assay: as above; details: in the presence of 0.1% casein (no HSA); geometric mean; read-out: Relative cAMP EC50, hGcgR;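 note: intracellular cAMP rise after 30 min at 37 °C, read by HTRF against a cAMP standard curve, scaled from buffer only (0%) to maximal control ligand response (100%)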
Chain of hGcgR (P47871 26-477): as the sequence (P47871 26-477) above

[4] = target: T1, hGLP-1R; assay: Functional cAMP activity in the presence of 1% HSA; details: read-out: cAMP Rel EC50, hGLP-1R
[5] = target: human GLP1-R (Homo sapiens, UniProt P43220); assay: GLP1-R internalization assay in HEK293 cells; details: for EC50: HEK293 cells expressing SNAP-GLP-1R, read-out: GLP1R Internalization EC50; for Internalization % TOP: normalized to maximum concentration of GLP-1 (100%)
Chain of human GLP1-R (P43220 24-463): as the sequence (P43220 24-463) above

[6] = target: T2, hGIPR (Homo sapiens, UniProt P48546); assay: Functional cAMP activity in the presence of 1% HSA; details: read-out: cAMP Rel EC50, hGIPR
T2 sequence (P48546 22-466): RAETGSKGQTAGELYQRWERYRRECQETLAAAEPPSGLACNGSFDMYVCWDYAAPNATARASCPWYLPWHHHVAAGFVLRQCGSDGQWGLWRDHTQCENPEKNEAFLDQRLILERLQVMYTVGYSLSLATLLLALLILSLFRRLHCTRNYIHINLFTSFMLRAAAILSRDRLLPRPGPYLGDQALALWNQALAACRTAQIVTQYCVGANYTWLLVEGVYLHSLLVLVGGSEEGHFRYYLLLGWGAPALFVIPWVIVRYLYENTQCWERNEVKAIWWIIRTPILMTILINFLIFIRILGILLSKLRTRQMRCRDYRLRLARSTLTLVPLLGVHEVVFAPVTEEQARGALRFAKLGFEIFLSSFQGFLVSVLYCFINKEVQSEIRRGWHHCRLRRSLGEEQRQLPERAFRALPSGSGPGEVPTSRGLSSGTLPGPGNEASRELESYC

[7] = target: T2, hGIPR; assay: Functional cAMP activation in the presence of 0.1% casein (no HSA); details: in the presence of 0.1% casein (no HSA); geometric mean; read-out: Relative cAMP EC50, hGIPR;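 for Relative cAMP EC50, hGIPR: intracellular cAMP rise after 30 min at 37 °C read by HTRF against a standard curve, scaled between buffer alone (0%) and top control ligand concentration (100%), four-parameter fit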;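 for Relative cAMP EC50, hGcgR: intracellular cAMP rise after 30 min at 37 °C, read by HTRF against a cAMP standard curve, scaled from buffer only (0%) to maximal control ligand response (100%)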

H-Y[Aib]QGTFTSDYS[Dap][αMeL]LDKK([AEEA-γGlu-C18 diacid])AQ[Aib]AFIEYLLEGGESSGAPPPSGS-NH2 [Example 360]
EC50 [1]: 1470 nM
EC50 [2]: 5.86 nM
EC50 [3]: 5.28 nM
EC50 [4]: 989 nM
EC50 [5]: 214 nM
Internalization % TOP [5]: 66.1%
EC50 [6]: 78.3 nM
EC50 [7]: 0.45 nM

H-Y[Aib]QGTFTSDYS[Orn][αMeL]LDKK([AEEA-γGlu-C18 diacid])AQ[Aib]AFIEYLLEGGESSGAPPPSGS-NH2 [Example 359]
EC50 [1]: 957 nM
EC50 [2]: 4.61 nM
EC50 [3]: 2.1 nM
EC50 [4]: 826 nM
EC50 [5]: 49.6 nM
Internalization % TOP [5]: 74.4%
EC50 [6]: 103 nM
EC50 [7]: 0.281 nM

H-Y[Aib]QGTFTSD[4Pal]SK[αMeL]LDKK([AEEA-γGlu-C18 diacid])AQ[Aib]AFIEYLIA[Aib]GESSGAPPPSGS-NH2 [Example 285]
EC50 [1]: 409 nM
EC50 [2]: 2.87 nM
EC50 [3]: 2.32 nM
EC50 [4]: 365 nM
EC50 [5]: 59.9 nM
Internalization % TOP [5]: 73.6%
EC50 [6]: 8.22 nM
EC50 [7]: 0.0652 nM

H-Y[Aib]QGTFTSD[4Pal]SK[αMeL]LDKK([AEEA-γGlu-C18 diacid])AQ[Aib]AFIEYLIE[Aib]GESSGAPPPSGS-NH2 [Example 280]
EC50 [1]: 1600 nM
EC50 [2]: 0.95 nM
EC50 [3]: 8.63 nM
EC50 [4]: 171 nM
EC50 [5]: 39.4 nM
Internalization % TOP [5]: 74.9%
EC50 [6]: 15.6 nM
EC50 [7]: 0.105 nM

H-Y[Aib]QGTFTSD[4Pal]SK[αMeL]LDKK([AEEA-γGlu-C18 diacid])AQ[Aib]AFIEYLIE[Aib]GESSGEPPPSGS-NH2 [Example 282]
EC50 [1]: 1830 nM
EC50 [2]: 1.09 nM
EC50 [3]: 6.98 nM
EC50 [4]: 217 nM
EC50 [5]: 28.7 nM
Internalization % TOP [5]: 71.9%
EC50 [6]: 22.1 nM
EC50 [7]: 0.163 nM

H-Y[Aib]QGTFTSD[4Pal]SR[αMeL]LDKK([AEEA-γGlu-C18 diacid])AQ[Aib]AFIEYLLAGGPSSGAPPPSGE-NH2 [Example 113]
EC50 [1]: 2090 nM
EC50 [2]: 3.93 nM
EC50 [3]: 12 nM
EC50 [4]: 467 nM
EC50 [5]: 39.5 nM
Internalization % TOP [5]: 64.6%
EC50 [6]: 32.3 nM
EC50 [7]: 0.24 nM

H-Y[Aib]QGTFTSD[4Pal]SR[αMeL]LDKK([AEEA-γGlu-C18 diacid])AQ[Aib]AFIEYLLE[Aib]GPSSGAPPPSGE-NH2 [Example 114]
EC50 [1]: 1120 nM
EC50 [2]: 6.38 nM
EC50 [3]: 5.63 nM
EC50 [4]: 1370 nM
EC50 [5]: 47.2 nM
Internalization % TOP [5]: 62.9%
EC50 [6]: 19.6 nM
EC50 [7]: 0.14 nM

H-Y[Aib]QGTFTSD[4Pal]S[Orn][αMeL]LDKK([AEEA-γGlu-C18 diacid])AQ[Aib]AFIEWLLEGGPSSGEPPPSGE-NH2 [Example 115]
EC50 [1]: 2210 nM
EC50 [2]: 7.6 nM
EC50 [3]: 10.6 nM
EC50 [4]: 1460 nM
EC50 [5]: 255 nM
Internalization % TOP [5]: 56.5%
EC50 [6]: 73.9 nM
EC50 [7]: 0.457 nM

H-Y[Aib]QGTFTSD[4Pal]S[Orn][αMeL]LDKK([AEEA-γGlu-C18 diacid])AQ[αMe4Pal]AFIEYLIE[Aib]GESSGAPPPSGE-NH2 [Example 222]
EC50 [1]: 440 nM
EC50 [2]: 3.64 nM
EC50 [3]: 2.33 nM
EC50 [4]: 753 nM
EC50 [5]: 34.6 nM
Internalization % TOP [5]: 52.4%
EC50 [6]: 52.5 nM
EC50 [7]: 0.228 nM

Y[Aib]QGTFTSDFSK[αMeL]LDKK([AEEA-γGlu-C18 diacid])AQ[Aib]AFIEYLLEGGPSSGAPPPSEG-NH2 [Example 48]
EC50 [1]: 728 nM
EC50 [2]: 2.99 nM
EC50 [3]: 3.8 nM
EC50 [4]: 570 nM
EC50 [5]: 44 nM
Internalization % TOP [5]: 55.2%
EC50 [6]: 46.9 nM
EC50 [7]: 0.27 nM

Y[Aib]QGTFTSDFSK[αMeL]LDKK([AEEA-γGlu-C18 diacid])AQ[Aib]QFIEYLLAGGPSSGEPPPSEG-NH2 [Example 26]
EC50 [1]: 980 nM
EC50 [2]: 3.44 nM
EC50 [3]: 4.82 nM
EC50 [4]: 623 nM
EC50 [5]: 96.1 nM
Internalization % TOP [5]: 75.6%
EC50 [6]: 35.4 nM
EC50 [7]: 0.2 nM

Reference: patent publication US20240270821A1, “GIP/GLP1/GCG TRI-RECEPTOR AGONISTS AND USES THEREOF” (priority 2023, published 2024)
